Results taken from ChEMBL document CHEMBL5375968, “Peptide TK-HR from the Skin of Chinese Folk Medicine Frog Hoplobatrachus Rugulosus Accelerates Wound Healing via the Activation of the Neurokinin-1 Receptor” (J Med Chem, 2023).
Calls of active or inactive are those of the source. The rule behind the calls is not given here.

How the values were obtained:
[1] = tested on: RAW264.7; test: Cytotoxicity against mouse RAW264.7 cells assessed as cell viability at 5 to 40 uM incubated for 24 hrs by MTT assay; format: toxicity, cell-based; conditions: raw264.7, 24 h, dose 5-40 µM
[2] = tested on: Neutrophil; test: Induction of chemotaxis in BALB/c mouse neutrophils assessed as increase in cell polarization measured for 15 mins by Zigmond-chamber based microscopy; format: functional; conditions: dose 5-40 µM
[3] = tested on: Mast cell; test: Inhibition of degranulation in mast cells (unknown origin) assessed as beta- hexosaminidase release upto 40 uM; format: functional, cell-based
[4] = tested on: RAW264.7; test: Induction of phagocytosis in mouse RAW264.7 cells assessed as increase in neutral red dye uptake by measuring optical density at 540 nm at 2.5 uM incubated for 24 hrs followed by dye addition measured after 4 hrs by absorbance based assay (reference value: 0.073); format: functional; conditions: time 28 hrs
[5] = organism: Mus musculus; test: Induction of wound healing in BALB/c mouse model of full-thickness wounds assessed as increase in endothelial cells in wound skin at 50 ug/ml, TOP bid measured after 4 days by IHC analysis; format: functional, cell-based; conditions: dose 50.0 µg/ml, time 4.0 day
[6] = tested on: Bacillus subtilis; test: Antimicrobial activity against Bacillus subtilis CMCC 63501 assessed as microbial growth inhibition at 100 uM; format: functional, organism-based
[7] = tested on: HaCaT; test: Induction of cell migration in human HaCaT cells assessed as healing rate at 20 uM measured after 48 hrs by scratch healing assay (reference value: 63.1 %); format: functional
[8] = tested on: RAW264.7; test: Induction of cell migration in mouse RAW264.7 cells incubated for 24 hrs by crystal violet staining based microscopy; format: functional; conditions: dose 5-20 µM
[9] = tested on: Escherichia coli; test: Antimicrobial activity against Escherichia coli ATCC 25922 assessed as microbial growth inhibition at 100 uM; format: functional, organism-based
[10] = organism: Mus musculus; test: Induction of wound healing in BALB/c mouse model of full-thickness wounds assessed as increase in phosphorylated Smad2 level in wound skin at 50 to 200 ug/ml, TOP bid measured after 4 days by Western blot analysis; format: functional; conditions: dose 50-200 µg/ml, time 4.0 day
[11] = tested on: RAW264.7; test: Upregulation of phosphorylated JNK level in mouse RAW264.7 cells at 2.5 to 20 uM incubated for 4 hrs by Western blot analysis; format: functional, cell-based; conditions: dose 2.5-20 µM
[12] = Toxicity in BALB/c mouse model of full-thickness wounds assessed as adverse effect in behaviour at 50 to 200 ug/ml, TOP bid measured upto 8 days; conditions: in vivo, topical_or_ocular, 192 h, dose 50-200 µg/ml, time < 8 day
[13] = tested on: HUVEC; test: Angiogenic activity in Aprepitant-treated HUVEC cells assessed as increase in tube formation at 20 uM measured for 4 hrs by microscopic analysis; format: functional, cell-based; conditions: Homo sapiens
[14] = tested on: Neutrophil; test: Induction of chemotaxis in BALB/c mouse neutrophils assessed as increase in ratio of cell polarization at 40 uM measured for 15 mins by Zigmond-chamber based microscopy (reference value: 14.6 %); format: functional; conditions: 0.25 h
[15] = tested on: Neutrophil; test: Induction of phagocytosis in BALB/c mouse neutrophils cultured with CFSE-labeled Escherichia coli ATCC 25922 at 10 uM pretreated for 1 hr followed by bacterial exposure measured after 1.5 hrs by fluorescence microscopy; format: functional, cell-based; conditions: time 2.5 hrs
[16] = tested on: RAW264.7; test: Upregulation of phosphorylated ERK level in mouse RAW264.7 cells at 2.5 to 20 uM incubated for 4 hrs by Western blot analysis; format: functional, cell-based; conditions: dose 2.5-20 µM
[17] = tested on: HUVEC; test: Induction of cell migration in HUVEC cells assessed as actin stress fiber formation at peripheral side of cytoplasmic membrane at 20 uM measured after 24 hrs by immunofluorescence microscopy; format: functional, cell-based; conditions: Homo sapiens
[18] = tested on: NIH3T3; test: Effect on TGF-1beta production in mouse 3T3 cells at 5 to 40 uM incubated for 24 hrs by ELISA; format: functional, cell-based; conditions: dose 5-40 µM
[19] = tested on: Neutrophil; test: Induction of wound healing in BALB/c mouse model of full-thickness wounds assessed as increase in number of neutrophil infiltration in wound skin at 50 ug/ml, TOP bid measured after 2 days by IHC analysis; format: functional, cell-based; conditions: dose 50.0 µg/ml, time 2.0 day
[20] = tested on: Neutrophil; test: Induction of phagocytosis in BALB/c mouse neutrophils cultured with CFSE-labeled Staphylococcus aureus ATCC 25923 at 10 uM pretreated for 1 hr followed by bacterial exposure measured after 1.5 hrs by fluorescence microscopy; format: functional, cell-based; conditions: time 2.5 hrs
[21] = tested on: RAW264.7; test: Effect on total p38 level in mouse RAW264.7 cells at 2.5 to 20 uM incubated for 4 hrs by Western blot analysis; format: functional, cell-based; conditions: dose 2.5-20 µM
[22] = tested on: RAW264.7; test: Effect on total ERK level in mouse RAW264.7 cells at 2.5 to 20 uM incubated for 4 hrs by Western blot analysis; format: functional, cell-based; conditions: dose 2.5-20 µM
[23] = Induction of wound healing in BALB/c mouse model of full-thickness wounds at 50 ug/ml, TOP bid measured after 2 days (reference value: 30.4 %); format: functional; conditions: dose 50 µg/ml, time 2 day
[24] = Induction of wound healing in BALB/c mouse model of full-thickness wounds at 100 ug/ml, TOP bid measured after 2 days (reference value: 30.4 %); format: functional; conditions: dose 100 µg/ml, time 2 day
[25] = tested on: RAW264.7; test: Induction of phagocytosis in mouse RAW264.7 cells cultured with Escherichia coli ATCC 25922 assessed as number of engulfed bacteria at 10 uM incubated for 24 hrs followed by bacterial exposure measured after 1 hr by plate counting method (reference value: 225); format: functional; conditions: time 25 hrs
[26] = Induction of wound healing in BALB/c mouse model of full-thickness wounds at 50 ug/ml, TOP bid pretreated with Aprepitant for 2 hrs followed by compound administration measured after 8 days (reference value: 82.1 %); format: functional; conditions: dose 50 µg/ml, time 8 day
[27] = tested on: Candida albicans; test: Antimicrobial activity against Candida albicans ATCC 10231 assessed as microbial growth inhibition at 100 uM; format: functional, organism-based
[28] = tested on: RAW264.7; test: Induction of phagocytosis in mouse RAW264.7 cells cultured with Escherichia coli ATCC 25922 assessed as number of surviving engulfed bacteria at 2.5 uM incubated for 24 hrs followed by bacterial exposure for 1 hr and further treated with gentamycin for 2 hrs by plate counting method (reference value: 37); format: functional; conditions: time 27 hrs
[29] = tested on: HUVEC; test: Induction of cell migration in HUVEC cells assessed as healing rate at 20 uM measured after 24 hrs by scratch healing assay (reference value: 30.2 %); format: functional, Homo sapiens
[30] = organism: Mus musculus; test: (§1) Induction of wound healing in BALB/c mouse model of full-thickness wounds assessed as recruitment of M1-type macrophages in wound skin at 50 ug/ml, TOP bid measured after 2 days by flow cytometry (reference value: 60.9 %); format: functional; conditions: dose 50.0 µg/ml, time 2.0 day
[31] = as §1; format: functional; conditions: dose 50 µg/ml, time 2 day
[32] = tested on: Splenic fibroblast; test: Effect on Smad3 activation in human […] fibroblasts upto 20 uM by Western blot analysis; format: functional, cell-based
[33] = tested on: HUVEC; test: Induction of cell migration in Mitomycin C-treated HUVEC cells assessed as healing rate at 20 uM measured after 48 hrs by scratch healing assay (reference value: 51.6 %); format: functional, Homo sapiens
[34] = Induction of TGF-beta1 level in mouse RAW264.7 cells at 10 uM incubated for 24 hrs by ELISA; format: functional
[35] = tested on: NIH3T3; test: Effect on cell migration in mouse 3T3 cells at 20 uM incubated upto 48 hrs by scratch healing assay; format: functional, cell-based

In the case of H-KPNPDRFYGLM-NH2, the Activity [1] is reported as “Non-Toxic”, the Activity [2] is reported as “Dose-Dependent Effect” and the inhibition [3] is reported as “Active”. The OD [4] was 0.097, the Activity [5] was “Active” and the Activity [6] was “inactive”. For the same substance, the Activity [7] was 92.8%, the Activity [8] was “Dose-Dependent Effect” and the Activity [9] was “inactive”. The Activity [10] was “Active”, the Activity [11] was “Active” and the Activity [12] was “Non-Toxic”. For the same substance, the Activity [13] was “inactive”, the Activity [14] was 50.4% and the Activity [15] was “Active”. The Activity [16] was “Active”, the Activity [17] was “Active” and the Activity [18] was “inactive”. For the same substance, the Activity [19] was “Active”, the Activity [20] was “Active” and the Activity [21] was “inactive”. The Activity [22] was “inactive”, the Activity [23] was 38.9% and the Activity [24] was 46.6%. For the same substance, the Activity [25] was 338, the Activity [26] was 82.5% and the Activity [27] was “inactive”. The Activity [28] was 30, the Activity [29] was 46.7% and the Activity [30] was “Active”. For the same substance, the Activity [31] was 79.2%, the Activity [32] was “inactive” and the Activity [33] was 78.7%. The Activity [34] was 90.7 pg/mL and the Activity [35] was “inactive”.
